Laboratory results from patent US8889714B2, “3,4-substituted piperidine derivatives as renin inhibitors” (Actelion Pharmaceuticals Ltd., priority 2008, dated 2014).
Like-named read-outs stand apart in the source and are kept apart here.

Experiments:
[1] = target: T1, Plasma renin activity (PRA) (Homo sapiens, UniProt P00797); test: Plasma renin activity (PRA) inhibition in dTG rats after TD delivery; type: in vivo, rat; details: TD 10 mg in DMSO (33 mg/kg); PRA at T4h vs T0h
T1 construct: from tissue; host or cells: plasma of female double transgenic rats (human renin and angiotensinogen transgenes)
T1 sequence (P00797 67-406): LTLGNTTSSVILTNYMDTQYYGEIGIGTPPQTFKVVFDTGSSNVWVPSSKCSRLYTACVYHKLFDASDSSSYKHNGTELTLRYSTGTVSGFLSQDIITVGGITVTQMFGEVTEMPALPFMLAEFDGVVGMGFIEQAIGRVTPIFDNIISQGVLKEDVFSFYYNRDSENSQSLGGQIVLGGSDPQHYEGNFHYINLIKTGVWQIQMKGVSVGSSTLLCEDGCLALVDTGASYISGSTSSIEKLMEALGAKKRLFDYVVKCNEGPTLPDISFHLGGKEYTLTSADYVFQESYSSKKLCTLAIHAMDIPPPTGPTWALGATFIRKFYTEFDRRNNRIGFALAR
Description: (§1) For transdermal delivery, double transgenic rats with implanted pressure transmitters were dosed with a single application on the shaved skin of the rat of vehicle (250 μl of 100% DMSO; n=4) or of the test compound (10 mg in 250 μl of 100% DMSO, i.e. 33 mg/kg; n=5). The rat was lightly sedated under 2.5% isoflurane anesthesia, and its back was shaved over a 4 cm^2 area. The animal was returned to his cage to recover from anesthesia. Twenty-four hours later, the rat was lightly sedated under 2.5% isoflurane anesthesia, and the shaved area disinfected with 3 passes of ethanol.
A blood sample (0.3 ml) was taken by tail bleed or jugular iv in the telemetrized dTGs, at T0h, T4h and T24h after TD delivery to determine test substance levels and bioavailability (estimated as area under the curve, or AUC) of the active substance in systemic circulation. Plasma renin activity (PRA) was also measured at T0h and T4h. The effect of the test substance on PRA is expressed as the percentage of inhibition of PRA at T4h vs T0h.

[2] = test system: female double transgenic rats (transgenic for human renin and angiotensin); test: Telemetry of mean arterial blood pressure after oral vs transdermal delivery in double transgenic rats; type: in vivo, rat; details: for ABC36h: area between curves of MAP
Description: Female double transgenic rats (rats transgenic for human renin and […] (see, e.g., Bohlender et al., J Am Soc Nephrol 11:2056 (2000)) were developed. All animals were maintained under identical conditions and had free access to normal pelleted rat chow and water. Rats were initially treated with enalapril (1 mg/kg/day), starting 3 weeks after birth and during 9 weeks. Telemetry transmitters are implanted within 2 to 4 weeks after cessation of enalapril treatment. After approximately two weeks following cessation of enalapril treatment, the double transgenic rats are hypertensive with mean arterial blood pressures in the range of 160-170 mmHg.
Transmitter implantation—The rats were anesthetized using isoflurane (via inhalation, 2-3%) The pressure transmitter was implanted under aseptic conditions into the peritoneal cavity with the sensing catheter placed in the descending aorta below the renal arteries pointing upstream. The transmitter was sutured to the abdominal musculature, the skin closed, and the rats were individually housed in a cage, placed on a telemetry receiver pad to enable collection of the blood pressure data during recovery from anesthesia and thereafter. The rats were single-caged for the duration of the recording of telemetry data.
Telemetry System—Telemetry units were obtained from Data Sciences International (DSI, St. Paul, Minn.). […] The tip of the catheter was filled with a viscous gel that prevents blood reflux. The implants (length=2.5 cm, diameter=1.2 cm) weighed 9 g and have a typical battery life of 6 months. A receiver platform (RPC-1, DSI) connected the radio signal to digitized input that was sent to a dedicated personal computer. Arterial pressures were calibrated by using an input from an ambient-pressure reference (APR-1, DSI). Systolic, mean and diastolic blood pressure was expressed in millimeter of mercury (mmHg).
Telemetry data analysis—Signals received by the receivers were digitized for 10 seconds every 5 minutes, at 500 Hz. From this signal, mean arterial pressure (MAP), systolic and diastolic blood pressure (SBP and DPB), pulse pressure (PP), heart rate (HR) and activity (ACT) were derived. A one-hour moving average of the data was then performed by the DSI analysis software. Data were then exported to an Excel template for the calculation of group statistics, areas between curves (ABC), maximal effect and duration of MAP reduction.
Drug administration—For oral delivery, double transgenic rats with implanted pressure transmitters were dosed by oral gavage with a single bolus of vehicle (0.5% methocel; 5 ml/kg) or of the test substance (30 mg/5 ml/kg) (n=5 per group). After dosing, the rat was returned to his cage. Blood pressure data were collected up to 5 days after oral dosing.
as §1
After evaporation of the ethanol, a volume of 250 μl of 100% DMSO only, or of the compound dissolved in a 100% DMSO solution was applied over the shaved area using a micropipette. After complete evaporation of the DMSO solution (within 5 min after application), an occlusive transparent, waterproof film (OpSite) was taped to the back of the animal over the shaved area, and a jacket was fitted on the animal. Isoflurane inhalation was stopped, and the animal individually caged for telemetry data collection. Blood pressure data were collected up to 5 days after application of the compound/DMSO solution.

[3] = Test substance levels / bioavailability (AUC) in systemic circulation of telemetrized dTG rats; type: in vivo; details: double transgenic (dTG), rat, T24h, read-out: AUC24h
[4] = target: T2, Human recombinant renin (Homo sapiens, UniProt P00797); test: Inhibition of human recombinant renin (buffer); type: biochemical; details: 100 pM renin, 50 mM MOPS pH 7.4, 37° C., 3 hours; read-out: Human Renin IC50 (buffer)
T2 construct: purchased Proteos
T2 sequence (P00797 67-406): T1 sequence (P00797 67-406)
Description: Fluorescence is measured at times 0 and 3 hours with a SpectraMax Gemini EM reader set at an excitation wavelength of 328 nm and at an emission wavelength of 388 nm. Background fluorescence at t=0 is subtracted from the measurement at t=3 hours. Inhibitory activity of the compounds is expressed as IC50.

[5] = target: T3, recombinant renin in human plasma (Homo sapiens, UniProt P00797); test: Inhibition of renin in human plasma; type: biochemical; details: human EDTA plasma, 1 nM recombinant renin added, 37° C., 1 hour; read-out: Human Renin IC50 (plasma)
T3 construct: purchased Proteos
T3 sequence (P00797 67-406): T1 sequence (P00797 67-406)
Description: Human EDTA-collected plasma is rapidly thawed in warm water and centrifuged at 2900 g for 15 minutes at 4° C. The supernatant is collected and recombinant renin (Proteos) is added at a final concentration of 1 nM. […] The plate is incubated at 37° C. for 1 hour. […] Background fluorescence at t=0 is subtracted from the measurement at t=1 hour. Inhibitory activity of the compounds is expressed as IC50.

[6] = PO, single oral gavage 30 mg/5 ml/kg in 0.5% methocel
[7] = TD, single application 10 mg in 250 μl 100% DMSO (33 mg/kg) on shaved skin

SMILES: COCCCc1cc(CN(C(=O)[C@H]2CNCC[C@@H]2c2ccn(C)c(=O)c2)C2CC2)cc(Br)c1C (relative stereo) [test substance, trans-N-({3-Bromo-4-methyl-5-[3-(methyloxy)propyl]phenyl}methyl)-N-cyclopropyl-4-(1-methyl-2-oxo-1,2-dihydro-4-pyridinyl)-3-piperidinecarboxamide]
- PRA inhibition at 4 h [1]: 98%
- duration of MAP reduction [2, 6]: 2 days
- max MAP decrease [2, 6]: 57 mmHg
- ABC36h [2, 6]: 1143 mmHg * h
- duration of MAP reduction [2, 7]: 1 days
- max MAP decrease [2, 7]: 30 mmHg
- ABC36h [2, 7]: 514 mmHg * h
- AUC(0-t) ([3]; topical, TD 10 mg in DMSO (33 mg/kg), blood samples at T0h, T4h): 2.9 µM·h
- AUC(0-t) ([3]; PO 30 mg/kg, blood samples at T0, T6h): 1.8 µM·h

SMILES: Cn1ccc(C2CCNC[C@@H]2C(=O)N(Cc2cc(CCC#N)cc(Cl)c2Cl)C2CC2)cc1=O (stereo in doubt) [Example 30, trans-N-Cyclopropyl-N-{[2,3-dichloro-5-(2-cyanoethyl)phenyl]methyl}-4-(1-methyl-2-oxo-1,2-dihydro-4-pyridinyl)-3-piperidinecarboxamide]
- IC50 [4]: 0.0084 µM
- IC50 [5]: 0.017 µM
